The record followed here is publication PMC10919040, “Exploration of newly synthesized azo-thiohydantoins as the potential alkaline phosphatase inhibitors via advanced biochemical characterization and molecular modeling approaches” (BMC Chemistry, 2024).

intestinal alkaline phosphatase (IAP), sequence (P19111 20-533): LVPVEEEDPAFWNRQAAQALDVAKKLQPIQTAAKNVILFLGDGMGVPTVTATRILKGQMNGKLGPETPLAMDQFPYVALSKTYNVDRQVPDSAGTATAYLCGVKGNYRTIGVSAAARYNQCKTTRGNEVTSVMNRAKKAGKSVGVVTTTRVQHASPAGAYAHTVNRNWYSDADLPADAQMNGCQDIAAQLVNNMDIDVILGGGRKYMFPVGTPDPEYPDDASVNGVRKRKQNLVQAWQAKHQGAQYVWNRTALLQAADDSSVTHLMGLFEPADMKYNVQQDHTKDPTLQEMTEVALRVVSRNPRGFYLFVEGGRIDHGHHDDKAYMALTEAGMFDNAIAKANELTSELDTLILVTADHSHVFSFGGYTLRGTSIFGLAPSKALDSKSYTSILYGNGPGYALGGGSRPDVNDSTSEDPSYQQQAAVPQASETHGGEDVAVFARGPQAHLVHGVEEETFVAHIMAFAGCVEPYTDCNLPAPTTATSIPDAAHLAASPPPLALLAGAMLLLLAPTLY

Tested on in the first series: not given
Test: not given
Conditions: not given
As to `O=C1CNC(=S)N1/N=C/c1cc(/N=N/c2ccc([N+](=O)[O-])cc2)ccc1O` [Compound 7f, 3-((E)-(2-hydroxy-5-((E)-(4-nitrophenyl)diazenyl)benzylidene)amino)-2-thioxoimidazolidin-4-one], the melting point (usually the temperature, or range, at which the solid turns liquid) was in the range of 271 to 273 °C.

Another series addresses intestinal alkaline phosphatase (IAP) (Bos taurus, UniProt P19111). Nature of the series: Alkaline phosphatase inhibition assay (spectrophotometric, p-NPP substrate). It is filed as biochemical, calf. The following applies: p-NPP 0.5 mM, pH 9.5, 37 °C, Mean ± SEM. The method, then:
The measurement of intestinal alkaline phosphatase (IAP) activity was conducted using a spectrophotometric method, as described earlier. […] Additionally, 10 µL of the compound was added to the mixture. The mixture was subjected to pre-incubation with 5 µL of IAP (0.025 U/mL) for a duration of 10 min. The reaction was started by introducing 10 µL of the substrate, which was 0.5 mM p-NPP (para nitrophenyl phosphate disodium salt). Following the addition, the assay underwent an incubation period of 30 min at a temperature of 37 °C. The change in absorbance resulting from the release of p-nitrophenolate was monitored at a wavelength of 405 nm using a Thermo Scientific™ Multiskan GO™ microplate reader. The experiment was repeated three times, with each repetition being done in triplicate. […] The calculation of inhibition activity and IC50 values were carried out as discussed earlier.
As for `O=C1CNC(=S)N1/N=C/c1cc(/N=N/c2ccccc2)ccc1O` [Compound 7a, 3-((E)-(2-hydroxy-5-((E)-phenyldiazenyl)benzylidene)amino)-2-thioxoimidazolidin-4-one], 4.85 ± 0.985 µM corresponded to half-maximal inhibition (IC50).
For `O=C1CNC(=S)N1/N=C/c1cc(/N=N/c2ccc(S(=O)(=O)O)cc2)ccc1O` [Compound 7b, 4-((E)-(4-hydroxy-3-((E)-((5-oxo-2-thioxoimidazolidin-1-yl)imino)methyl)phenyl)-diazenyl)benzenesulfonic acid], the IC50 (in general, the point on the concentration scale where inhibition reaches its midpoint) was determined as 1.28 ± 0.214 µM.
Same read-out and setting: then `O=C1CNC(=S)N1/N=C/c1cc(/N=N/c2cccc(Cl)c2Cl)ccc1O` [Compound 7c, 3-((E)-(5-((E)-(2,3-dichlorophenyl)diazenyl)-2-hydroxybenzylidene)amino)-2 thioxoimidazolidin-4-one], with 3.07 ± 0.687 µM; and `Cc1c(Cl)cccc1/N=N/c1ccc(O)c(/C=N/N2C(=O)CNC2=S)c1` [Compound 7d, 3-((E)-(5-((E)-(3-chloro-2-methylphenyl)diazenyl)-2-hydroxybenzylidene)amino)-2-thioxoimidazolidin-4-one], with 3.15 ± 0.853 µM; and `O=C(O)c1ccc(/N=N/c2ccc(O)c(/C=N/N3C(=O)CNC3=S)c2)cc1` [Compound 7e, 4-((E)-(4-hydroxy-3-((E)-((5-oxo-2-thioxoimidazolidin-1-yl)imino)methyl)phenyl)diazenyl)benzoic acid], with 0.308 ± 0.065 µM.
The same measure, in the same setting: then `O=C1CNC(=S)N1/N=C/c1cc(/N=N/c2ccc([N+](=O)[O-])cc2)ccc1O` [Compound 7f, 3-((E)-(2-hydroxy-5-((E)-(4-nitrophenyl)diazenyl)benzylidene)amino)-2-thioxoimidazolidin-4-one], with 0.836 ± 0.097 µM.
On the same count and under the same terms, then `N[C@@H](Cc1ccccc1)C(=O)O` [L–Phenyl alanine, reference compound], with 80.2 ± 1.1 µM.
